Where “and” joins values, the source holds several entries; their conditions need not be identical. Identical values can stand only once.
Molecular target: T1, AcrAB efflux system (Escherichia coli, UniProt P31224)
T1 construct: endogenous in cells; host or cells: E. coli BL21 (DE3) carrying aspC/proA on pET32
Experiment: Monatin efflux per dry cell weight after induction of the AcrAB efflux pump with sodium decanoate
Assay type: cell-based
Method: The microbial strain used for the experiment was E. coli BL21 (DE3) : : aspC/proA/pET32 (WO 03091396). The symbol : :, as is known in the art, stands for “transformed.” Example 12 provides a non-limiting exemplary method for transforming a microorganism. For an inoculum, the E. coli strains were grown overnight at 37° C. and 250 rpm in Luria-Bertani (“LB”) medium with 100 μg/mL ampicillin. For the experimental treatments, Trp-1+ glucose medium, a minimal medium that has been used for increased production of tryptophan in E. coli cells (Zeman et al. Folia Microbiol. 35:200-204, (1990)), was prepared as follows. To 800 mL nanopure water the following reagents were added: 2 g (NH4)2SO4 and 13.6 g KH2PO4. The pH was adjusted to 7.0, the volume was increased to 948 mL, and the medium was autoclaved. Following sterilization, 0.2 g MgSO4.7H2O, 0.01 g CaCl2.2H2O, and 0.5 mg FeSO4.7H2O were added to the medium in a 1.8 mL volume followed by addition of 0.2 mL of Neidhardt's micronutrient solution. Neidhardt, F. C., et al., “Culture medium for Enterobacteria,” J. Bacteriol. 119:736-746 (1974). Neidhardt's medium includes (per liter): 0.18 g (NH4)6(MO7)24.4H2O, 1.24 g H3BO3, 0.36 g CoCl2.6H2O, 0.12 g CuSO4 (anhydrous), 0.8 g MnCl2.4H2O, and 0.14 g ZnSO4.7H2O. A 50% glucose solution was prepared separately and sterile-filtered. Forty mL of glucose solution and 10 mL of 1 M 3-Morpholinopropanesulfonic acid (“MOPS”) buffer were added to the base medium (950 mL) for a 1 L final volume. […] Flasks were incubated at 37° C. with agitation at 250 rpm up to induction. […] 0.5 mM pyridoxine hydrochloride, and 0.2 mL of Balch's vitamins (Balch, W. E., et al., “Methanogens: reevaluation of a unique biological group,” Microbiol. Rev. 43:260-296, (1979)) were added at induction and the incubation temperature was lowered to 30° C. following induction. […] Some treatments included 2.5 mM sodium decanoate addition at 3.5 hours following induction. Samples for monatin analysis and dry cell weight determination were taken at 24 and 30 hours. Monatin analysis was done as described in Example 13.
Analyses of mixtures for monatin and tryptophan derived from in vitro or in vivo biochemical reactions were performed using a Waters/Micromass liquid chromatography-tandem mass spectrometry (“LC/MS/MS”) instrument including a Waters 2795 liquid chromatograph with a Waters 996 Photo-Diode Array (PDA) absorbance monitor placed in series between the chromatograph and a Micromass Quattro Ultima triple quadrupole mass spectrometer. LC separations were made using an Xterra MS C8 reversed-phase chromatography column, 2.1 mm×250 mm at 40° C. The LC mobile phase consisted of A) water containing 0.05% (v/v) trifluoroacetic acid and B) methanol containing 0.05% (v/v) trifluoroacetic acid.
The gradient elution was linear from 5% B to 35% B, 0-4 min, linear from 35% B to 60% B, 4-6.5 min, linear from 60% B to 90% B, 6.5-7 min, isocratic at 90% B 7-11 min, linear from 90% B to 95% B, 11-12 min, linear from 95% B to 5% B, 12-13 min, with a 5 min re-equilibration period between runs. The flow rate was 0.25 mL/min, and PDA absorbance was monitored from 200 nm to 400 nm. All parameters of the ESI-MS were optimized and selected based on generation of protonated molecular ions ([M+H]^+) of the analytes of interest, and production of characteristic fragment ions. […]

[1] = 2.5 mM Na decanoate, E. coli BL21 (DE3)::aspC/proA/pET32, single flasks

T1 sequence (P31224 whole entry): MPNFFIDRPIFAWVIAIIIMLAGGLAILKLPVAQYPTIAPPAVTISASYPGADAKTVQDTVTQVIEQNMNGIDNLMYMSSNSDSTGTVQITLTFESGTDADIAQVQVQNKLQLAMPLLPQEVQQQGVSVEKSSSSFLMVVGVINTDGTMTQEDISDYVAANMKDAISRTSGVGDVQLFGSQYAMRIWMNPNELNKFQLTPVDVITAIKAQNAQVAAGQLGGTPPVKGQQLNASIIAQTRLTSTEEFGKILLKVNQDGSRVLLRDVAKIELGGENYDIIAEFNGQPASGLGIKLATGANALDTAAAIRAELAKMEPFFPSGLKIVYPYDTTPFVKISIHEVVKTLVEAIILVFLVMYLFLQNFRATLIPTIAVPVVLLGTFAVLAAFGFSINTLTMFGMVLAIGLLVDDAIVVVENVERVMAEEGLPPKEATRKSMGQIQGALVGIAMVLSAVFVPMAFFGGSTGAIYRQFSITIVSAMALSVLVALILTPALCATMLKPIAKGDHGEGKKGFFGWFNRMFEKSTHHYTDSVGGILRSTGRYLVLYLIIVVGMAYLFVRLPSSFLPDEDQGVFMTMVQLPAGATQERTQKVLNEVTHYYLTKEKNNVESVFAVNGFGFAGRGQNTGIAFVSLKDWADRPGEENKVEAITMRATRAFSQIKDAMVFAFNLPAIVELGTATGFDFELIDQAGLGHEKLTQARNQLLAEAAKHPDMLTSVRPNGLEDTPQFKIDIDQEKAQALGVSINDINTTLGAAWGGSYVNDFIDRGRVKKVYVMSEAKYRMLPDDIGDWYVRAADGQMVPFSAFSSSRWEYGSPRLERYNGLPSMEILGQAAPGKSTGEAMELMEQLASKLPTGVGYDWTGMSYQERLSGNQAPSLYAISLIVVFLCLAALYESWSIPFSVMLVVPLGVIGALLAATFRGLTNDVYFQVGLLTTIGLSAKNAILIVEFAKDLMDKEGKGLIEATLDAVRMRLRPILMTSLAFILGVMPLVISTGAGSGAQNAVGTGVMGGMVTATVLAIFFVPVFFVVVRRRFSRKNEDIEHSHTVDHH
T1 sequence (P02930 23-493, further chain): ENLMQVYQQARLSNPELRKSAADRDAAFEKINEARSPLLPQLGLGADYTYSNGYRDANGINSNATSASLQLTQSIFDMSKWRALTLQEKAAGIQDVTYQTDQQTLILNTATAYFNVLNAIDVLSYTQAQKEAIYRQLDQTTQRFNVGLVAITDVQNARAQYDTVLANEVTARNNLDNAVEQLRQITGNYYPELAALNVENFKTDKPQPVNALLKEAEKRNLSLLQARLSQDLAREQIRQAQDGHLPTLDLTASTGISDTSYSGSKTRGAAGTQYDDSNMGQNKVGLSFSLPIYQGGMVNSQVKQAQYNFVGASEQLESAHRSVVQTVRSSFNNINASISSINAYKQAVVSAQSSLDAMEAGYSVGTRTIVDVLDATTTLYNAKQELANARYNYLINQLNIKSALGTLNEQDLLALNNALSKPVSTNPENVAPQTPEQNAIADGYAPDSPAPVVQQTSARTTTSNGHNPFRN
T1 sequence (P0AE06 25-397, further chain): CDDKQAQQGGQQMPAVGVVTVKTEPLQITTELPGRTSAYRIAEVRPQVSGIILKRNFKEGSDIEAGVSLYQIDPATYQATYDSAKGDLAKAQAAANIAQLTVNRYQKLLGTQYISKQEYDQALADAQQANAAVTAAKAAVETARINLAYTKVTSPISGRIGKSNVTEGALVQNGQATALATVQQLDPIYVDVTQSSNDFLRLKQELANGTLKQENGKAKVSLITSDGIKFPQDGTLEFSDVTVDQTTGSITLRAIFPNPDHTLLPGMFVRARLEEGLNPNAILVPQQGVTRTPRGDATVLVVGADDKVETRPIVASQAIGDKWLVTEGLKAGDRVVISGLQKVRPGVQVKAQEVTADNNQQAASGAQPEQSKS

Q: Which “Monatin/dcw at run hour 24” value [1] does the source give for `CCCCCCCCCC(=O)[O-].[Na+]` [sodium decanoate] here?
A: 14.7 mg monatin/g dcw and 12.0 mg monatin/g dcw and 17.0 mg monatin/g dcw

Q: And the “Monatin/dcw at run hour 30” value [1]?
A: 14.3 mg monatin/g dcw and 13.8 mg monatin/g dcw and 17.4 mg monatin/g dcw

Q: And the “Average monatin/dcw at run hour 24” value (2.5 mM Na decanoate, n = 3)?
A: 14.6 mg monatin/g dcw

Q: What about the “Average monatin/dcw at run hour 30” value (2.5 mM Na decanoate, n = 3) of the same molecule?
A: 15.2 mg monatin/g dcw

Q: What about the “increase in monatin secreted/dry cell weight” value (2.5 mM sodium decanoate vs no decanoate) of the same molecule?
A: Greater than nine fold increase

Source: US8158389B2, “Products and methods for in vivo secretion of monatin” (priority 2005, dated 2012)
